Measurements as given in patent publication US7265131B2, “Isoquinolinone derivatives and their use as therapeutic agents” (Exelixis, Inc., priority 2002, dated 2007).
pEC50: −log10 of the molar value.

Target: T1, LXR β (Homo sapiens, UniProt P55055)
T1 construct: comprising full-length LXR α (pCMX-hLXR α), LXR β (pCMX-hLXR β), or RXR α (pCMX-RXR); expressed in transfected cells; host or cells: CV-1 African Green Monkey kidney cells, transient transfection
T1 sequence (P55055 1-460): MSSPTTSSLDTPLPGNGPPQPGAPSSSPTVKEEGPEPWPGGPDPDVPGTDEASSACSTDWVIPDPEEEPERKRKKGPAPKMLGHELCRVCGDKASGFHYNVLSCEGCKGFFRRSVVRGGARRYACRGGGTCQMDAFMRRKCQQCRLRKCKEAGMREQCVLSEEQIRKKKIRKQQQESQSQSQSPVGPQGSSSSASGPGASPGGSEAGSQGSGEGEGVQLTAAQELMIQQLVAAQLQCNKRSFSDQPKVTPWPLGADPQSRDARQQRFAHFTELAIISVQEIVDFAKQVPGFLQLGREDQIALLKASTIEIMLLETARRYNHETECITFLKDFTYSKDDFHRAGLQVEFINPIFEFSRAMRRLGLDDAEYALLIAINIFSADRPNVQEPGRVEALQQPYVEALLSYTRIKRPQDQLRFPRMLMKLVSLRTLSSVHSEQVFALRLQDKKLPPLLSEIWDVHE
T1 sequence (P19793 1-462 partner): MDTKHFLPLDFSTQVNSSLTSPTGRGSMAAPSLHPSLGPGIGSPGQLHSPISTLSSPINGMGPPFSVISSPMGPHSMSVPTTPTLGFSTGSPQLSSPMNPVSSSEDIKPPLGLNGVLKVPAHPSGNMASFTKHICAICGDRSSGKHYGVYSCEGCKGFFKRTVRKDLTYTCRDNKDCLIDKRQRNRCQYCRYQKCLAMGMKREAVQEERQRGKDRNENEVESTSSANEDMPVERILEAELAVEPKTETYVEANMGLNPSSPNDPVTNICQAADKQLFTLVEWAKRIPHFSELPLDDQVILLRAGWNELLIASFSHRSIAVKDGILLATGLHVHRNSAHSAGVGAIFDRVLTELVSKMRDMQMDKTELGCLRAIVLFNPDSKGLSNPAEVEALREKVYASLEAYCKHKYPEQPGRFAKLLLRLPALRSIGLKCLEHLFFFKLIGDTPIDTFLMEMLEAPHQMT
Experiment: LXR/LXRE co-transfection assay (luciferase reporter, CV-1 cells)
Type: cell-based
Settings: for Emax: CV-1, average percent efficacy, relative to control N-(3-((4-fluorophenyl)-(naphthalene-2-sulfonyl)amino)propyl)-2,2-dimethylpropionamide, read-out: % Eff(b); for pEC50: average EC50 for agonism, cotransfection assay, CV-1 cells
Source text: To measure the ability of compounds to activate or inhibit the transcriptional activity of LXR in a cell based assay, the co-transfection assay was used. It has been shown that LXR functions as a heterodimer with RXR. For the co-transfection assay, expression plasmids for LXR and RXR are introduced via transient transfection into mammalian cells along with a luciferase reporter plasmid that contains one copy of a DNA sequence that is bound by LXR-RXR heterodimers (LXRE; Willy, P. et al. 1995). Treatment of transfected cells with an LXR agonist increases the transcriptional activity of LXR, which is measured by an increase in luciferase activity.
1. CV-1 African Green Monkey Kidney Cells
2. Co-transfection expression plasmids, comprising full-length LXR α (pCMX-hLXR α), LXR β (pCMX-hLXR β), or RXR α (pCMX-RXR), reporter plasmid (LXREx1-Tk-Luciferase), and control (pCMX-Galactosidase expression vector) (Willey et al. Genes & Development 9 1033-1045 (1995)).
CV-1 cells were prepared 24 hours prior to the experiment by plating them into T-175 flasks or 500 cm^2 dishes in order to achieve 70-80% confluency on the day of the transfection. The number of cells to be transfected was determined by the number of plates to be screened. Each 384 well plate requires 1.92×10^6 cells or 5000 cells per well. DNA Transfection Reagent was prepared by mixing the required plasmid DNAs with a cationic lipid transfection reagent FuGENE6 (Roche) by following the instructions provided with the reagents. Optimal DNA amounts were determined empirically per cell line and size of vessel to be transfected. 10-12 mL of media was added to the DNA Transfection Reagent and this mixture was added to the cells after aspirating media from the T175 cm^2 flask. Cells were then incubated at least 5 hours at 37° C. to prepare screening cells.
Luciferase assay reagent was prepared by combining before use (per 10 mL):
Assay plates were prepared by dispensing 5 μL of compound per well of a 384 well plate to achieve final compound concentration of 10 μM and no more than 1% DMSO. Media was removed from the screening cells, the cells trypsinized, harvested cells by centrifugation, counted, and plated at a density of approximately 5000 cells per well in the 384 well assay plate prepared above in a volume of about 45 μL. Assay plates containing both compounds and screening cells (50 μL in total volume) were incubated for 20 hours at 37° C.
After incubation with compounds, media was removed from the cells and lysis buffer (30 μuL/well) added. After 30 minutes at ambient temperature, luciferase assay buffer (30 μL/well) was added and the assay plates read on a luminometer (PE Biosystems Northstar reader with on-board injectors, or equivalent). Plates were read immediately after addition of luciferase assay buffer.
The LXR/LXRE co-transfection assay can be used to establish the EC50/IC50 values for potency and percent activity or inhibition for efficacy. Efficacy defines the activity of a compound relative to a high control ((N-(3-((4-fluorophenyl)-(naphthalene-2-sulfonyl)amino)propyl)-2,2-dimethylpropionamide)) or a low control (DMSO/vehicle). The dose response curves are generated from an 8 point curve with concentrations differing by ½ LOG units. Each point represents the average of 4 wells of data from a 384 well plate.
The data from this assay is fitted to the following equation, from the EC50 value may be solved: Y=Bottom+(Top-Bottom)/(1+10^((logEC50-X*HillSlope))
The EC50/IC50 is therefore defined as the concentration at which an agonist or antagonist elicits a response that is half way between the Top (maximum) and Bottom (baseline) values. The EC50/IC50 values represented are the averages of at least 3 independent experiments. […]

Nc1ccc(-c2coc(-c3cc4cccc(Cl)c4c(=O)n3Cc3ccc(F)cc3F)c2)cc1C(F)(F)F [3-[4-(4-amino-3-trifluoromethylphenyl)furan-2-yl]-8-chloro-2-(2,4-difluorobenzyl)-2H-isoquinolin-1-one]
Emax: > 90% | pEC50: 6.82 to 8.00

O=c1c2c(Cl)cccc2cc(-c2cc(-c3cc(C(F)(F)F)cc(C(F)(F)F)c3)co2)n1Cc1ccc(F)cc1F [3-[4-(3,5-bis-trifluoromethylphenyl)furan-2-yl]-8-chloro-2-(2,4-difluorobenzyl)-2H-isoquinolin-1-one]
Emax: > 90% | pEC50: 6.82 to 8.00

Cc1ccc(Cn2c(-c3ccc(Oc4ccccc4)cc3)cc3cccc(C)c3c2=O)cc1 [8-methyl-2-(4-methylbenzyl)-3-(4-phenoxyphenyl)-2H-isoquinolin-1-one]
Emax: 40 to 90% | pEC50: 6.82 to 8.00

O=c1c2c(Cl)cccc2cc(-c2ccc(Oc3ccccc3)cc2)n1Cc1cccs1 [8-chloro-3-(4-phenoxyphenyl)-2-thiophen-2-ylmethyl-2H-isoquinolin-1-one]
Emax: > 90% | pEC50: 6.30 to 6.82

Cc1ccc(Cn2c(-c3ccc(Oc4ccccc4)cc3)cc3ccccc3c2=O)c(C)c1 [2-(2,4-dimethylbenzyl)-3-(4-phenoxyphenyl)-2H-isoquinolin-1-one]
Emax: > 90% | pEC50: 6.82 to 8.00

Cc1cccc(-c2cc3ccccc3c(=O)n2Cc2ccccc2)c1 [2-benzyl-3-m-tolyl-2H-isoquinolin-1-one]
Emax: 40 to 90% | pEC50: < 6.30

O=c1c2c(Cl)cccc2cc(-c2ccc(Oc3cnccn3)cc2)n1Cc1ccc(F)cc1F [8-chloro-2-(2,4-difluorobenzyl)-3-[4-(pyrazin-2-yloxy)phenyl]-2H-isoquinolin-1-one]
Emax: > 90% | pEC50: 6.82 to 8.00

O=c1c2c(Cl)cccc2cc(-c2ccc(Oc3ccccc3)cc2)n1CC1CCCCC1 [8-chloro-2-cyclohexylmethyl-3-(4-phenoxyphenyl)-2H-isoquinolin-1-one]
Emax: > 90% | pEC50: 6.30 to 6.82

O=c1c2c(Cl)cccc2cc(-c2ccc(Oc3ccccc3)cc2)n1Cc1ccc(F)cc1F [8-chloro-2-(2,4-difluorobenzyl)-3-(4-phenoxyphenyl)-2H-isoquinolin-1-one]
Emax: > 90% | pEC50: 6.82 to 8.00

CCOc1ccc(-c2csc(-c3cc4cccc(Cl)c4c(=O)n3Cc3ccc(F)cc3F)c2)cc1Cl [8-chloro-3-[4-(3-chloro-4-ethoxyphenyl)thiophen-2-yl]-2-(2,4-difluorobenzyl)-2H-isoquinolin-1-one]
Emax: > 90% | pEC50: 6.82 to 8.00

Cc1cccc(-c2cc3ccccc3c(=O)n2Cc2ccc(C)cc2C)c1 [2-(2,4-dimethylbenzyl)-3-m-tolyl-2H-isoquinolin-1-one]
Emax: 40 to 90% | pEC50: < 6.30

Cc1ccc(Cn2c(-c3ccsc3)cc3ccccc3c2=O)c(C)c1 [2-(2,4-dimethylbenzyl)-3-thiophen-3-yl-2H-isoquinolin-1-one]
Emax: 40 to 90% | pEC50: < 6.30

Cc1ccc(Cn2c(C#CC(C)(C)O)cc3ccccc3c2=O)c(C)c1 [2-(2,4-dimethylbenzyl)-3-(3-hydroxy-3-methylbut-1-ynyl)-2H-isoquinolin-1-one]
Emax: 40 to 90% | pEC50: < 6.30

CS(=O)(=O)c1ccc(-c2ccc(-c3cc4cccc(Cl)c4c(=O)n3Cc3ccc(F)cc3F)s2)cc1 [8-chloro-2-(2,4-difluorobenzyl)-3-[5-(4-methanesulfonylphenyl)thiophen-2-yl]-2H-isoquinolin-1-one]
Emax: > 90% | pEC50: > 8.00
